Reference: the NIST ThermoML archive (doi:10.1016/j.jct.2004.01.006)
Values joined by “and” are separate entries in the source; they are usually repeats but may differ in a detail not shown here. Identical values can stand only once. Numbers after ± are expanded uncertainties.

Assay: molar heat capacity at constant pressure
Details: 101.33 kPa

O=Cc1ccc(Cl)cc1Cl [2,4-dichlorobenzaldehyde]
Details | molar heat capacity at constant pressure
79.17 K, Crystal | 71.3 ± 1.8 J/K/mol
80 K, Crystal | 71.33 ± 1.8 J/K/mol
81.36 K, Crystal | 72.02 ± 1.8 J/K/mol
83.11 K, Crystal | 72.63 ± 1.9 J/K/mol
85 K, Crystal | 73.98 ± 1.9 J/K/mol
85.3 K, Crystal | 73.72 ± 1.9 J/K/mol
87.49 K, Crystal | 74.91 ± 1.9 J/K/mol
89.6 K, Crystal | 76.29 ± 1.9 J/K/mol
90 K, Crystal | 76.75 ± 2 J/K/mol
91.66 K, Crystal | 77.86 ± 2 J/K/mol
93.69 K, Crystal | 79.02 ± 2.1 J/K/mol
95 K, Crystal | 79.6 ± 2.1 J/K/mol
95.68 K, Crystal | 80.2 ± 2.1 J/K/mol
97.64 K, Crystal | 81.37 ± 2.1 J/K/mol
99.56 K, Crystal | 82.67 ± 2.1 J/K/mol
100 K, Crystal | 82.48 ± 2.1 J/K/mol
101.45 K, Crystal | 83.56 ± 2.1 J/K/mol
103.32 K, Crystal | 84.39 ± 2.2 J/K/mol
105 K, Crystal | 85.38 ± 2.2 J/K/mol
105.16 K, Crystal | 85.43 ± 2.2 J/K/mol
106.97 K, Crystal | 86.65 ± 2.2 J/K/mol
108.76 K, Crystal | 87.94 ± 2.2 J/K/mol
110 K, Crystal | 88.26 ± 2.2 J/K/mol
110.53 K, Crystal | 88.83 ± 2.2 J/K/mol
112.28 K, Crystal | 89.53 ± 2.2 J/K/mol
114 K, Crystal | 90.58 ± 2.3 J/K/mol
115 K, Crystal | 91.11 ± 2.3 J/K/mol
115.71 K, Crystal | 91.48 ± 2.3 J/K/mol
117.4 K, Crystal | 92.47 ± 2.3 J/K/mol
119.07 K, Crystal | 93.42 ± 2.3 J/K/mol
120 K, Crystal | 93.92 ± 2.3 J/K/mol
120.73 K, Crystal | 94.06 ± 2.3 J/K/mol
122.36 K, Crystal | 94.81 ± 2.3 J/K/mol
123.99 K, Crystal | 95.87 ± 2.3 J/K/mol
125 K, Crystal | 96.69 ± 2.3 J/K/mol
125.6 K, Crystal | 96.98 ± 2.4 J/K/mol
127.19 K, Crystal | 97.8 ± 2.4 J/K/mol
128.78 K, Crystal | 98.46 ± 2.4 J/K/mol
130 K, Crystal | 99.4 ± 2.4 J/K/mol
130.34 K, Crystal | 99.55 ± 2.4 J/K/mol
131.9 K, Crystal | 100.68 ± 2.4 J/K/mol
133.44 K, Crystal | 101.08 ± 2.4 J/K/mol
134.97 K, Crystal | 101.62 ± 2.4 J/K/mol
135 K, Crystal | 102.07 ± 2.4 J/K/mol
136.49 K, Crystal | 102.52 ± 2.4 J/K/mol
138 K, Crystal | 103.61 ± 2.5 J/K/mol
139.5 K, Crystal | 104.14 ± 2.5 J/K/mol
140 K, Crystal | 104.7 ± 2.5 J/K/mol
140.99 K, Crystal | 104.87 ± 2.5 J/K/mol
142.47 K, Crystal | 105.48 ± 2.5 J/K/mol
143.93 K, Crystal | 106.66 ± 2.5 J/K/mol
145 K, Crystal | 107.29 ± 2.5 J/K/mol
145.39 K, Crystal | 107.75 ± 2.5 J/K/mol
146.84 K, Crystal | 108.26 ± 2.5 J/K/mol
148.28 K, Crystal | 109.04 ± 2.5 J/K/mol
149.71 K, Crystal | 109.83 ± 2.6 J/K/mol
150 K, Crystal | 109.85 ± 2.6 J/K/mol
151.13 K, Crystal | 111.12 ± 2.6 J/K/mol
152.54 K, Crystal | 111.74 ± 2.6 J/K/mol
153.94 K, Crystal | 112.08 ± 2.6 J/K/mol
155 K, Crystal | 112.39 ± 2.6 J/K/mol
155.34 K, Crystal | 112.93 ± 2.6 J/K/mol
157.51 K, Crystal | 113.86 ± 2.6 J/K/mol
160 K, Crystal | 114.92 ± 2.6 J/K/mol
160.42 K, Crystal | 115.39 ± 2.6 J/K/mol
163.32 K, Crystal | 116.39 ± 2.7 J/K/mol
165 K, Crystal | 117.44 ± 2.7 J/K/mol
166.18 K, Crystal | 117.94 ± 2.7 J/K/mol
169.01 K, Crystal | 119.36 ± 2.7 J/K/mol
170 K, Crystal | 119.97 ± 2.7 J/K/mol
171.81 K, Crystal | 121.11 ± 2.7 J/K/mol
174.59 K, Crystal | 122.69 ± 2.8 J/K/mol
175 K, Crystal | 122.52 ± 2.8 J/K/mol
177.33 K, Crystal | 124.06 ± 2.8 J/K/mol
180 K, Crystal | 125.09 ± 2.8 J/K/mol
180.05 K, Crystal | 125.43 ± 2.8 J/K/mol
182.75 K, Crystal | 126.44 ± 2.8 J/K/mol
185 K, Crystal | 127.68 ± 2.8 J/K/mol
185.43 K, Crystal | 127.77 ± 2.8 J/K/mol
190 K, Crystal | 130.3 ± 2.9 J/K/mol
190.71 K, Crystal | 130.68 ± 2.9 J/K/mol
193.31 K, Crystal | 131.82 ± 2.9 J/K/mol
195 K, Crystal | 133 ± 2.9 J/K/mol
195.91 K, Crystal | 133.03 ± 2.9 J/K/mol
198.41 K, Crystal | 134.61 ± 3 J/K/mol
200 K, Crystal | 135.65 ± 3 J/K/mol
200.76 K, Crystal | 135.6 ± 3 J/K/mol
203.12 K, Crystal | 136.47 ± 3 J/K/mol
205 K, Crystal | 138.37 ± 3 J/K/mol
205.61 K, Crystal | 137.67 ± 3 J/K/mol
208.11 K, Crystal | 139.14 ± 3 J/K/mol
210 K, Crystal | 141.12 ± 3.1 J/K/mol
210.61 K, Crystal | 140.62 ± 3.1 J/K/mol
213.05 K, Crystal | 142.39 ± 3.1 J/K/mol
215 K, Crystal | 143.89 ± 3.1 J/K/mol
215.46 K, Crystal | 143.66 ± 3.1 J/K/mol
217.88 K, Crystal | 145.35 ± 3.1 J/K/mol
220 K, Crystal | 146.69 ± 3.2 J/K/mol
220.3 K, Crystal | 147.01 ± 3.2 J/K/mol
222.73 K, Crystal | 148.63 ± 3.2 J/K/mol
225 K, Crystal | 149.5 ± 3.2 J/K/mol
225.15 K, Crystal | 150.44 ± 3.2 J/K/mol
227.5 K, Crystal | 152.1 ± 3.2 J/K/mol
229.92 K, Crystal | 153.24 ± 3.3 J/K/mol
230 K, Crystal | 152.31 ± 3.2 J/K/mol
232.35 K, Crystal | 154.92 ± 3.3 J/K/mol
234.92 K, Crystal | 156.38 ± 3.3 J/K/mol
235 K, Crystal | 155.12 ± 3.3 J/K/mol
237.8 K, Crystal | 157.76 ± 3.3 J/K/mol
240 K, Crystal | 157.9 ± 3.3 J/K/mol
240.46 K, Crystal | 159.08 ± 3.3 J/K/mol
242.88 K, Crystal | 160.14 ± 3.4 J/K/mol
245 K, Crystal | 160.64 ± 3.4 J/K/mol
245.08 K, Crystal | 161.43 ± 3.4 J/K/mol
247.12 K, Crystal | 162.34 ± 3.4 J/K/mol
249.24 K, Crystal | 163.27 ± 3.4 J/K/mol
250 K, Crystal | 163.39 ± 3.4 J/K/mol
251.44 K, Crystal | 164.55 ± 3.4 J/K/mol
253.56 K, Crystal | 165.45 ± 3.5 J/K/mol
255 K, Crystal | 166.07 ± 3.5 J/K/mol
255.68 K, Crystal | 166.2 ± 3.5 J/K/mol
257.73 K, Crystal | 166.92 ± 3.5 J/K/mol
259.85 K, Crystal | 167.67 ± 3.5 J/K/mol
260 K, Crystal | 168.69 ± 3.5 J/K/mol
261.89 K, Crystal | 168.77 ± 3.5 J/K/mol
264.01 K, Crystal | 169.61 ± 3.5 J/K/mol
265 K, Crystal | 171.25 ± 3.5 J/K/mol
266.06 K, Crystal | 170.55 ± 3.5 J/K/mol
268.03 K, Crystal | 171.61 ± 3.5 J/K/mol
270 K, Crystal | 173.73 ± 3.6 J/K/mol
270.08 K, Crystal | 172.38 ± 3.6 J/K/mol
272.05 K, Crystal | 173.75 ± 3.6 J/K/mol
274.01 K, Crystal | 174.95 ± 3.6 J/K/mol
275 K, Crystal | 176.14 ± 3.6 J/K/mol
275.99 K, Crystal | 175.77 ± 3.6 J/K/mol
277.95 K, Crystal | 176.86 ± 3.6 J/K/mol
279.85 K, Crystal | 177.84 ± 3.6 J/K/mol
280 K, Crystal | 178.48 ± 3.7 J/K/mol
281.74 K, Crystal | 178.91 ± 3.7 J/K/mol
283.64 K, Crystal | 179.72 ± 3.7 J/K/mol
285 K, Crystal | 180.75 ± 3.7 J/K/mol
285.53 K, Crystal | 180.86 ± 3.7 J/K/mol
287.42 K, Crystal | 181.6 ± 3.7 J/K/mol
289.24 K, Crystal | 182.74 ± 3.7 J/K/mol
290 K, Crystal | 182.93 ± 3.7 J/K/mol
291.06 K, Crystal | 183.73 ± 3.7 J/K/mol
292.88 K, Crystal | 184.79 ± 3.8 J/K/mol
294.62 K, Crystal | 185.72 ± 3.8 J/K/mol
295 K, Crystal | 185.12 ± 3.8 J/K/mol
296.36 K, Crystal | 186.66 ± 3.8 J/K/mol
298.03 K, Crystal | 187.45 ± 3.8 J/K/mol
298.15 K, Crystal | 186.47 ± 3.8 J/K/mol
299.7 K, Crystal | 187.95 ± 3.8 J/K/mol
301.36 K, Crystal | 188.77 ± 3.8 J/K/mol
303.86 K, Crystal | 189.94 ± 3.8 J/K/mol
305 K, Crystal | 189.4 ± 3.8 J/K/mol
306.12 K, Crystal | 191.07 ± 3.9 J/K/mol
308.39 K, Crystal | 191.8 ± 3.9 J/K/mol
310 K, Crystal | 191.58 ± 3.9 J/K/mol
310.67 K, Crystal | 192.53 ± 3.9 J/K/mol
312.95 K, Crystal | 193.73 ± 3.9 J/K/mol
315 K, Crystal | 193.86 ± 3.9 J/K/mol
319.7 K, Crystal | 196.52 ± 3.9 J/K/mol
320 K, Crystal | 196.27 ± 3.9 J/K/mol
321.89 K, Crystal | 197.35 ± 4 J/K/mol
324.09 K, Crystal | 198.21 ± 4 J/K/mol
325 K, Crystal | 198.9 ± 4 J/K/mol
326.21 K, Crystal | 199.12 ± 4 J/K/mol
328.41 K, Crystal | 199.91 ± 4 J/K/mol
330 K, Crystal | 201.83 ± 4 J/K/mol
330.53 K, Crystal | 200.78 ± 4 J/K/mol
332.65 K, Crystal | 201.79 ± 4 J/K/mol
334.67 K, Crystal | 202.59 ± 4 J/K/mol
335 K, Crystal | 205.15 ± 4.1 J/K/mol
336.74 K, Crystal | 203.39 ± 4.1 J/K/mol
338.77 K, Crystal | 205.71 ± 4.1 J/K/mol
340 K, Crystal | 208.96 ± 4.1 J/K/mol
350 K, Liquid | 208.08 ± 2.1 J/K/mol
350.08 K, Liquid | 208.1 ± 2.1 J/K/mol
351.82 K, Liquid | 208.76 ± 2.1 J/K/mol
353.56 K, Liquid | 209.27 ± 2.1 J/K/mol
355 K, Liquid | 209.85 ± 2.1 J/K/mol
355.74 K, Liquid | 210.16 ± 2.1 J/K/mol
357.14 K, Liquid | 210.51 ± 2.1 J/K/mol
358.64 K, Liquid | 210.8 ± 2.1 J/K/mol
360 K, Liquid | 211.16 ± 2.1 J/K/mol
361.51 K, Liquid | 211.51 ± 2.1 J/K/mol
362.95 K, Liquid | 211.74 ± 2.1 J/K/mol
364.32 K, Liquid | 212.33 ± 2.1 J/K/mol
365 K, Liquid | 212.44 ± 2.1 J/K/mol
365.61 K, Liquid | 212.74 ± 2.1 J/K/mol
366.82 K, Liquid | 213.06 ± 2.1 J/K/mol
367.95 K, Liquid | 213.48 ± 2.1 J/K/mol
369.01 K, Liquid | 213.84 ± 2.1 J/K/mol
369.7 K, Liquid | 214.36 ± 2.1 J/K/mol
370 K, Liquid | 214.39 ± 2.1 J/K/mol and 214.31 ± 2.1 J/K/mol
370.76 K, Liquid | 214.45 ± 2.1 J/K/mol
371.51 K, Liquid | 214.51 ± 2.1 J/K/mol and 214.66 ± 2.1 J/K/mol
